Data reported in patent US20190262453A1, “DESIGN AND COMPOSITION OF CELL-STABILIZED PHARMACEUTICAL FORMULATIONS” (THE REGENTS OF THE UNIVERSITY OF MICHIGAN, priority 2016, published 2019).
Where a name gives a salt, the structure may show the parent alone.

Assay: pH-dependent solubility study of CFZ-HCl (Flynn approach)
Format: physicochemical
Description: Solubility Measurement Using the Flynn Approach. […] Mili-Q water (15 mL) was added to each vial ensuring that CFZ-HCl crystals were in great excess. Moreover, an appropriate amount of 0.1 M NaOH was added to each vial to set the initial equilibration pH measurements as follows: […] The set of sample containing vials was placed on a magnetic stirrer plate in a 25° C. water bath. […] The pH of the filtered sample was determine by Denver Instrument UltraBasic pH meter (Denver Instrument, Bohemia, N.Y.), after which the sample was subjected to HPLC analysis (Waters Alliance, Separations Module 2695) to determine the total solubility of the drug at the measured pH. […] The retention time for CFZ was determined to be at 4.75 min. […] Thus, in order to fit the experimental solubility-pH data curve of CFZ-HC, it was determined which one of the aforementioned solubility-pH relationships (equation 8 vs. equation 9) to use. […] Then, a value, say “y”, from the list of the computed [CFZH^+] values was set equal [CFZH+]S. By substituting “y' in place of [CFZH+]S, total solubility at the different pH values was calculated using the solubility-pH equation where the intrinsic salt is the primary solid species (equation 15). […]

## CC(C)/N=c1\cc2n(-c3ccc(Cl)cc3)c3ccccc3nc-2cc1Nc1ccc(Cl)cc1 [CFZ-HCl, Clofazimine Hydrochloride]
Dissolved in pure water
  solubility versus unprotonated CFZ free base: greater solubility
From pH-solubility profile, 25° C.
  pHmax: 4.5±7.11×10^−15
